# PMC11864979, “First-in-class ultralong-target-residence-time p38α inhibitors as a mitosis-targeted therapy for colorectal cancer” (Nature Cancer, 2025)
# Like-named read-outs stand apart in the source and are kept apart here.
# Tests used:
# Test in all cases: selectivity profiling in a panel of 340 wild-type kinases (Reaction Biology Europe)
# Type in all cases: binding
# 340 wild-type kinases [1] = target: T1, 340 wild-type kinases (Homo sapiens, UniProt P16234)
# T1 construct: purchased Reaction Biology Europe
# T1 sequence (P16234 24-1089): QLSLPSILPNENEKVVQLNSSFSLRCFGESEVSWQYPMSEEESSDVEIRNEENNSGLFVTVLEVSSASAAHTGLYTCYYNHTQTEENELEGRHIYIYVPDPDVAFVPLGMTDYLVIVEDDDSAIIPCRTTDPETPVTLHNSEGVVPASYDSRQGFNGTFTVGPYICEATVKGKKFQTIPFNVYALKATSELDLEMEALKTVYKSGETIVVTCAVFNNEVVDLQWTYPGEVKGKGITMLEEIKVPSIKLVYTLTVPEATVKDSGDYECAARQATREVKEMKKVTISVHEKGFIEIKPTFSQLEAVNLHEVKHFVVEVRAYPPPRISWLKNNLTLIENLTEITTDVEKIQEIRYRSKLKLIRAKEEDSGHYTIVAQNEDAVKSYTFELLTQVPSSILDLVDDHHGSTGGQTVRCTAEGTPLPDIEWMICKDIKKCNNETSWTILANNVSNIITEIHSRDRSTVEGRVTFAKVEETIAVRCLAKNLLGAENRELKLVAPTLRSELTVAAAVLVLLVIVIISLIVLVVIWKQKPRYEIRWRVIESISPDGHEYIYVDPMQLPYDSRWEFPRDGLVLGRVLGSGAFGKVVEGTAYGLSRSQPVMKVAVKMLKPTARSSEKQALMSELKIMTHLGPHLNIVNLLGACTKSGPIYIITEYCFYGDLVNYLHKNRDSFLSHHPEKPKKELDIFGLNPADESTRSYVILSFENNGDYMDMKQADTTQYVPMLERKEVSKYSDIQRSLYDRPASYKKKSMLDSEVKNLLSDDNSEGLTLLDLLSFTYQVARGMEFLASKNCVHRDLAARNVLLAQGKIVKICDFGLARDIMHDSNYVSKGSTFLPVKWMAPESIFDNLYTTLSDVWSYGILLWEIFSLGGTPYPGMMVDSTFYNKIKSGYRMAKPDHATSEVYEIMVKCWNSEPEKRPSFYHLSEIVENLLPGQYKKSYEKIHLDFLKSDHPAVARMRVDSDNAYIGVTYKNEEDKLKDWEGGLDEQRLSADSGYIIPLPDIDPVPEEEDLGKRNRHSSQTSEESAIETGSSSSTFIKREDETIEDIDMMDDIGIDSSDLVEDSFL
# 340 wild-type kinases [2] = target: T2, 340 wild-type kinases (Homo sapiens, UniProt P50750)
# T2 construct: purchased Reaction Biology Europe
# T2 sequence (P50750 whole entry): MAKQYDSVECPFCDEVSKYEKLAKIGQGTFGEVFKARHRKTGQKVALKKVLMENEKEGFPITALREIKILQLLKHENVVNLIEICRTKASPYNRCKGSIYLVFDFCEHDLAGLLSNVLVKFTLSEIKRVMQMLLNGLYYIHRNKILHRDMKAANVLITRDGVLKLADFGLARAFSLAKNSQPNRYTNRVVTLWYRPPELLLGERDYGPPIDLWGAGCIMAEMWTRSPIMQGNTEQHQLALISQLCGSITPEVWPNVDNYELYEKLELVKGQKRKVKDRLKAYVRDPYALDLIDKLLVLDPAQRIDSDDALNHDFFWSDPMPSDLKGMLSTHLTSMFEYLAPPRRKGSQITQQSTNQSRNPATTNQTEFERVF
# 340 wild-type kinases [3] = target: T3, 340 wild-type kinases (Homo sapiens, UniProt Q05513); details: PKMzeta, read-out: residual activity
# T3 construct: purchased Reaction Biology Europe
# T3 sequence (Q05513 184-592): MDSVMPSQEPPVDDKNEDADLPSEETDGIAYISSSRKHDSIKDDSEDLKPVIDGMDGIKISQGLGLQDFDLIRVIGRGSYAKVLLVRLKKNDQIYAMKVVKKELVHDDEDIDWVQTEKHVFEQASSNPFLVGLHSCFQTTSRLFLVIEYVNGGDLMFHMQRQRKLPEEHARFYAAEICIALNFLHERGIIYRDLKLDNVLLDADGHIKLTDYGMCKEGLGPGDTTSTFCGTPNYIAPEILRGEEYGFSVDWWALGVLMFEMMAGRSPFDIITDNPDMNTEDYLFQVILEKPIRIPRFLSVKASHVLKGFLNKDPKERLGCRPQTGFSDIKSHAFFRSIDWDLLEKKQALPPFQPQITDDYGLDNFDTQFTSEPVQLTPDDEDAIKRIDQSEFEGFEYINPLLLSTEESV
# 340 wild-type kinases [4] = target: T4, 340 wild-type kinases (Homo sapiens, UniProt Q13627)
# T4 construct: purchased Reaction Biology Europe
# 340 wild-type kinases [5] = target: T5, 340 wild-type kinases (Homo sapiens, UniProt Q16566)
# T5 construct: purchased Reaction Biology Europe
# T5 sequence (Q16566 1-473): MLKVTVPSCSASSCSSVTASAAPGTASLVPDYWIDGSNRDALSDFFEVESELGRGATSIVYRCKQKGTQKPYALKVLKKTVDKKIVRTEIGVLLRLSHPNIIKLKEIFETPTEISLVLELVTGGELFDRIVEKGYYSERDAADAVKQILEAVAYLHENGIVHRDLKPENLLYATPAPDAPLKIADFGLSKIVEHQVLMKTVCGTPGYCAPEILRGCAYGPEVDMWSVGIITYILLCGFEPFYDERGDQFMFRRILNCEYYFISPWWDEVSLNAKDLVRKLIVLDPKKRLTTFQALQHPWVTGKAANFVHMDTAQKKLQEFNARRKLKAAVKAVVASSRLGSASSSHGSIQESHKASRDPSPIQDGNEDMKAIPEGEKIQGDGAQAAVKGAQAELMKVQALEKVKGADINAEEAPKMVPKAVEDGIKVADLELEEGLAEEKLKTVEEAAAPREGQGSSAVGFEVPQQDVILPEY
# 340 wild-type kinases [6] = target: T6, 340 wild-type kinases (Homo sapiens, UniProt Q9H422)
# T6 construct: purchased Reaction Biology Europe
# T6 sequence (Q9H422 whole entry): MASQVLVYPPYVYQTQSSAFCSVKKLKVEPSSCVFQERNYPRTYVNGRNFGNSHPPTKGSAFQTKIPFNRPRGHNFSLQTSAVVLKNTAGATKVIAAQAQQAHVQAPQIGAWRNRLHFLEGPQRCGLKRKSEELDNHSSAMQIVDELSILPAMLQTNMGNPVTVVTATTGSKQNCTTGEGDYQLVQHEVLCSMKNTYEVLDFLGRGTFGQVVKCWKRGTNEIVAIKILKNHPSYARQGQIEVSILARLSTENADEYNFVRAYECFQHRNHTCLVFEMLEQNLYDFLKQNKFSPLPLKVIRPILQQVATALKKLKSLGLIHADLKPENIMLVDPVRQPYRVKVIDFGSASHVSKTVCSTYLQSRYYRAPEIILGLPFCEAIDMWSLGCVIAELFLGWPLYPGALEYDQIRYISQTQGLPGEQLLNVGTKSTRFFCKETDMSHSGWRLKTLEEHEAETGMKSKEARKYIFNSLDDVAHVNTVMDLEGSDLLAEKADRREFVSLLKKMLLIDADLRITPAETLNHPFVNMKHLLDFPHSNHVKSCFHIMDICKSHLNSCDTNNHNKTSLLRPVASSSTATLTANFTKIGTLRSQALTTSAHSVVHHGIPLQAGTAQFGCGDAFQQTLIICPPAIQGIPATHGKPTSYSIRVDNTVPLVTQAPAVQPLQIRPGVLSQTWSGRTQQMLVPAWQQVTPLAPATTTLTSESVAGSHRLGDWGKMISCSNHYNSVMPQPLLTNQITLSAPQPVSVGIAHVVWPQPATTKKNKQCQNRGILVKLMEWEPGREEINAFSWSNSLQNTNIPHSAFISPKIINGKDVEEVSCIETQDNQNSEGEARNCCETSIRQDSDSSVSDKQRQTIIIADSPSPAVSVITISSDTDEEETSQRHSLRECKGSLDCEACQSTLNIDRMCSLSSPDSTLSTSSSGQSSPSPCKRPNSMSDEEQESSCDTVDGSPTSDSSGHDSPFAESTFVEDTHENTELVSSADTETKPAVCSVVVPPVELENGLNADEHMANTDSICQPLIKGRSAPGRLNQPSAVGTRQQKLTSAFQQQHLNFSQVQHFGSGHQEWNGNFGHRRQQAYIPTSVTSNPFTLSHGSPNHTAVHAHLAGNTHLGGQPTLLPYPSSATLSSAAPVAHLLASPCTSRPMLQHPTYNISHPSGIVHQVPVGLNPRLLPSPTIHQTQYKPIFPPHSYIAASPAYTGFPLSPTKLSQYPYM
# 340 wild-type kinases [7] = target: T7, 340 wild-type kinases (Homo sapiens, UniProt Q9H4B4)
# T7 construct: purchased Reaction Biology Europe
# T7 sequence (Q9H4B4 whole entry): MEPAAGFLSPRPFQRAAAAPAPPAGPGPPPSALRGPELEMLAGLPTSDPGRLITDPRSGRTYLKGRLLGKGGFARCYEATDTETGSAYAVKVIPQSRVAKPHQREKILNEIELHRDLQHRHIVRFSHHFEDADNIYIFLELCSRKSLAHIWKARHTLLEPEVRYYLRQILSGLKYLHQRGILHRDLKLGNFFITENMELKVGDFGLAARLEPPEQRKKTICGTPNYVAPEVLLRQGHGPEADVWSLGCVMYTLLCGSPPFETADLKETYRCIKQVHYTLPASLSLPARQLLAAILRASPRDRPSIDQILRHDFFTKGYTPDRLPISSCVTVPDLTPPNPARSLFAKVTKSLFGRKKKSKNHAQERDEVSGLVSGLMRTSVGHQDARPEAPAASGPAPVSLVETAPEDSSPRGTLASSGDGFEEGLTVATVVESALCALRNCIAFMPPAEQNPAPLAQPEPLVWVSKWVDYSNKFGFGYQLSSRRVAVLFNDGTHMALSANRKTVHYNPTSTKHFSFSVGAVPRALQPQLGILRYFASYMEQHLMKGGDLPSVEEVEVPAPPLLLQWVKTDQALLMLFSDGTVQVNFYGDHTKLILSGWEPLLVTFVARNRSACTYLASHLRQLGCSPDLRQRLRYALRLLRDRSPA
# 340 wild-type kinases [8] = target: T8, 340 wild-type kinases (Homo sapiens, UniProt Q9UKI8)
# T8 construct: purchased Reaction Biology Europe
# T8 sequence (Q9UKI8 1-766): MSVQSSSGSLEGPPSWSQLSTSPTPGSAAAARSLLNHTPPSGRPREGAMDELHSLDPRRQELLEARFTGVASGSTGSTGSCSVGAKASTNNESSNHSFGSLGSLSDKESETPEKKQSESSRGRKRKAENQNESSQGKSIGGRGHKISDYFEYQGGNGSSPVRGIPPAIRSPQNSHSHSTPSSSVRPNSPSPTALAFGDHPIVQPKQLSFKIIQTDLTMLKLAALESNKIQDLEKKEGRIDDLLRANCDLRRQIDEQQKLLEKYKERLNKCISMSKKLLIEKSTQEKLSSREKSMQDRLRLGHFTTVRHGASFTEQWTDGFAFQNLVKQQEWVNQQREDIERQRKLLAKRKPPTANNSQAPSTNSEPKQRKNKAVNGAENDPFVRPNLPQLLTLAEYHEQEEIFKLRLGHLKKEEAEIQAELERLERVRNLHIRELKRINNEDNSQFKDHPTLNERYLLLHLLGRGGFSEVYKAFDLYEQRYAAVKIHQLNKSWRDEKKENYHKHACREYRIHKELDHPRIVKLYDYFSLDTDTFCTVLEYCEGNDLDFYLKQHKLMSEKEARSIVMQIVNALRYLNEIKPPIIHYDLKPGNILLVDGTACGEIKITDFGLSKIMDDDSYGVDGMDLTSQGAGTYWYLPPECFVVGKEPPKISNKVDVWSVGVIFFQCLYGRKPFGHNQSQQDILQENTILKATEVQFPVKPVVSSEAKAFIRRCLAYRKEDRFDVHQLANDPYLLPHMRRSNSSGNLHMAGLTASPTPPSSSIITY
smiles,measurement,setting,value
CNC(=O)c1ccc2c(c1)C(=O)c1ccc(Nc3ccc(F)c(NC(=O)C4CC4)c3)cc1CC2 [Compound 2015],remaining activity at 0.2 µM,"340 wild-type kinases [1]; 0.2 µM 2015, read-out: PDGFRalpha residual activity",102%
same,remaining activity at 1 µM,"340 wild-type kinases [1]; 1 µM 2015, read-out: PDGFRalpha residual activity",95.4%
same,remaining activity at 0.2 µM,"340 wild-type kinases [1]; PDGFRalpha, 0.2 µM, read-out: residual activity",102%
same,remaining activity at 1 µM,"340 wild-type kinases [1]; PDGFRalpha, 1 µM, read-out: residual activity",95.4%
same,remaining activity at 0.2 µM,"340 wild-type kinases [2]; 0.2 µM 2015, read-out: CDK9/CycK residual activity",94.2%
same,remaining activity at 0.2 µM,"340 wild-type kinases [2]; 0.2 µM 2015, read-out: CDK9/CycT1 residual activity",107%
same,remaining activity at 1 µM,"340 wild-type kinases [2]; 1 µM 2015, read-out: CDK9/CycK residual activity",95.1%
same,remaining activity at 1 µM,"340 wild-type kinases [2]; 1 µM 2015, read-out: CDK9/CycT1 residual activity",94%
same,remaining activity at 0.2 µM,"340 wild-type kinases [2]; CDK9/CycK, 0.2 µM, read-out: residual activity",94.2%
same,remaining activity at 1 µM,"340 wild-type kinases [2]; CDK9/CycK, 1 µM, read-out: residual activity",95.2%
same,remaining activity at 0.2 µM,"340 wild-type kinases [2]; CDK9/CycT1, 0.2 µM, read-out: residual activity",107%
same,remaining activity at 1 µM,"340 wild-type kinases [2]; CDK9/CycT1, 1 µM, read-out: residual activity",94%
same,remaining activity at 0.2 µM,340 wild-type kinases [3]; 0.2 µM,106%
same,remaining activity at 1 µM,340 wild-type kinases [3]; 1 µM,102%
same,remaining activity at 0.2 µM,"340 wild-type kinases [4]; 0.2 µM 2015, read-out: DYRK1A residual activity",86.7%
same,remaining activity at 1 µM,"340 wild-type kinases [4]; 1 µM 2015, read-out: DYRK1A residual activity",90.3%
same,remaining activity at 0.2 µM,"340 wild-type kinases [4]; DYRK1A, 0.2 µM, read-out: residual activity",86.8%
same,remaining activity at 1 µM,"340 wild-type kinases [4]; DYRK1A, 1 µM, read-out: residual activity",90.3%
same,remaining activity at 0.2 µM,"340 wild-type kinases [5]; 0.2 µM 2015, read-out: CAMK4 residual activity",92.7%
same,remaining activity at 1 µM,"340 wild-type kinases [5]; 1 µM 2015, read-out: CAMK4 residual activity",94.1%
same,remaining activity at 0.2 µM,"340 wild-type kinases [5]; CAMK4, 0.2 µM, read-out: residual activity",92.7%
same,remaining activity at 1 µM,"340 wild-type kinases [5]; CAMK4, 1 µM, read-out: residual activity",94.2%
same,remaining activity at 0.2 µM,"340 wild-type kinases [6]; 0.2 µM 2015, read-out: HIPK3 residual activity",104%
same,remaining activity at 1 µM,"340 wild-type kinases [6]; 1 µM 2015, read-out: HIPK3 residual activity",104%
same,remaining activity at 0.2 µM,"340 wild-type kinases [6]; HIPK3, 0.2 µM, read-out: residual activity",104%
same,remaining activity at 1 µM,"340 wild-type kinases [6]; HIPK3, 1 µM, read-out: residual activity",104%
same,remaining activity at 0.2 µM,"340 wild-type kinases [7]; 0.2 µM 2015, read-out: PLK3 residual activity",101%
same,remaining activity at 1 µM,"340 wild-type kinases [7]; 1 µM 2015, read-out: PLK3 residual activity",134%
same,remaining activity at 0.2 µM,"340 wild-type kinases [7]; PLK3, 0.2 µM, read-out: residual activity",101%
same,remaining activity at 1 µM,"340 wild-type kinases [7]; PLK3, 1 µM, read-out: residual activity",134%
same,remaining activity at 0.2 µM,"340 wild-type kinases [8]; 0.2 µM 2015, read-out: TLK1 residual activity",122%
same,remaining activity at 1 µM,"340 wild-type kinases [8]; 1 µM 2015, read-out: TLK1 residual activity",105%
same,remaining activity at 0.2 µM,"340 wild-type kinases [8]; TLK1, 0.2 µM, read-out: residual activity",122%
same,remaining activity at 1 µM,"340 wild-type kinases [8]; TLK1, 1 µM, read-out: residual activity",105%
